Read-outs that look alike come from different tables or passages of the source.
What was measured:
Experiment in all cases: Kinase selectivity, scanMAX Kinase assay panel (DiscoverX), % control at 1 uM
Format in all cases: binding
[1] = target: T1, scanMAX Kinase assay panel (Homo sapiens, UniProt O96013); conditions: PAK4; 1 uM; read-out: Percent Control (%)
T1 construct: purchased DiscoverX
In short: (§1)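 Binding across the scanMAX kinase panel was tested at 1 uM compound. % control = (compound − positive control)/(negative control − positive control) × 100; below 35 counted as active.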

[2] = target: T2, scanMAX Kinase assay panel (Homo sapiens, UniProt O14976); conditions: GAK; 1 uM; read-out: Percent Control (%)
T2 construct: purchased DiscoverX
T2 sequence (O14976 1-1311): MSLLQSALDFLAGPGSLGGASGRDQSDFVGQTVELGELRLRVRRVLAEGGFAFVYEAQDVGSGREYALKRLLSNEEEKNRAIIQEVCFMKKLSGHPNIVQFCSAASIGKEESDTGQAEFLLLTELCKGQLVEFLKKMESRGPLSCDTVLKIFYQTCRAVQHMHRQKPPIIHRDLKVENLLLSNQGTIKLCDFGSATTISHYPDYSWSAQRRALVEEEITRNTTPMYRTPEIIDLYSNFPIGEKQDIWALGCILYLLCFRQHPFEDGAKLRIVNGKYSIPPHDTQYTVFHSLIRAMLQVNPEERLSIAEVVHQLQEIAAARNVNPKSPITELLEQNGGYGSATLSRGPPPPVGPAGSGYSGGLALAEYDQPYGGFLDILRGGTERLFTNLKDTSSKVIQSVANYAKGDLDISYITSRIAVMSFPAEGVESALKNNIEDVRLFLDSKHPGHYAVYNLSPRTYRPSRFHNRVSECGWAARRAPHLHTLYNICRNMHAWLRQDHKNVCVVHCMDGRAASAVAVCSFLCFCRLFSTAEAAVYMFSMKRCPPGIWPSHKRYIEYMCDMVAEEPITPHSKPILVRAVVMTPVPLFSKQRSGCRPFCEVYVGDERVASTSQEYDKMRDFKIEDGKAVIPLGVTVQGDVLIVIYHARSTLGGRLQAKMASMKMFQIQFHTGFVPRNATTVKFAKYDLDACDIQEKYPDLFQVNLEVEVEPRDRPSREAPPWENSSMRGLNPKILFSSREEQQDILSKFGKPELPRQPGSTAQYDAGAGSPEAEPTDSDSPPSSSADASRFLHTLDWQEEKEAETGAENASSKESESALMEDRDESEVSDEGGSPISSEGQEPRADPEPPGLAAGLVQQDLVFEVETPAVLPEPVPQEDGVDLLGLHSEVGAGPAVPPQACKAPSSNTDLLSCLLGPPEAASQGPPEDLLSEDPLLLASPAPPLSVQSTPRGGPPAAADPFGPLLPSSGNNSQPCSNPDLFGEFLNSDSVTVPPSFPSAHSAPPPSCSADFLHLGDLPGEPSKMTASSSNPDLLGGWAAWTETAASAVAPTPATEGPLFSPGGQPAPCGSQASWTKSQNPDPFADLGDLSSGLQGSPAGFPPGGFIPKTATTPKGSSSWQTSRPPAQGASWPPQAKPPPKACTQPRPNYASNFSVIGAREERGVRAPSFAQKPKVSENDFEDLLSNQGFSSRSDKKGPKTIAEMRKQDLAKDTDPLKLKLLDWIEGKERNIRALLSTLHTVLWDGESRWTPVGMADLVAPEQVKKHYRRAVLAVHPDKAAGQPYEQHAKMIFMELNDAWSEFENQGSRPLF
In short: as §1

[3] = target: T3, scanMAX Kinase assay panel (Homo sapiens, UniProt P22694); conditions: PKAC-beta; 1 uM; read-out: Percent Control (%)
T3 construct: purchased DiscoverX
In short: as §1

[4] = target: T4, scanMAX Kinase assay panel (Homo sapiens, UniProt P42336, Q546K); conditions: PIK3CA (Q546K); 1 uM; read-out: Percent Control (%)
T4 construct: purchased DiscoverX
T4 sequence (P42336 whole entry Q546K): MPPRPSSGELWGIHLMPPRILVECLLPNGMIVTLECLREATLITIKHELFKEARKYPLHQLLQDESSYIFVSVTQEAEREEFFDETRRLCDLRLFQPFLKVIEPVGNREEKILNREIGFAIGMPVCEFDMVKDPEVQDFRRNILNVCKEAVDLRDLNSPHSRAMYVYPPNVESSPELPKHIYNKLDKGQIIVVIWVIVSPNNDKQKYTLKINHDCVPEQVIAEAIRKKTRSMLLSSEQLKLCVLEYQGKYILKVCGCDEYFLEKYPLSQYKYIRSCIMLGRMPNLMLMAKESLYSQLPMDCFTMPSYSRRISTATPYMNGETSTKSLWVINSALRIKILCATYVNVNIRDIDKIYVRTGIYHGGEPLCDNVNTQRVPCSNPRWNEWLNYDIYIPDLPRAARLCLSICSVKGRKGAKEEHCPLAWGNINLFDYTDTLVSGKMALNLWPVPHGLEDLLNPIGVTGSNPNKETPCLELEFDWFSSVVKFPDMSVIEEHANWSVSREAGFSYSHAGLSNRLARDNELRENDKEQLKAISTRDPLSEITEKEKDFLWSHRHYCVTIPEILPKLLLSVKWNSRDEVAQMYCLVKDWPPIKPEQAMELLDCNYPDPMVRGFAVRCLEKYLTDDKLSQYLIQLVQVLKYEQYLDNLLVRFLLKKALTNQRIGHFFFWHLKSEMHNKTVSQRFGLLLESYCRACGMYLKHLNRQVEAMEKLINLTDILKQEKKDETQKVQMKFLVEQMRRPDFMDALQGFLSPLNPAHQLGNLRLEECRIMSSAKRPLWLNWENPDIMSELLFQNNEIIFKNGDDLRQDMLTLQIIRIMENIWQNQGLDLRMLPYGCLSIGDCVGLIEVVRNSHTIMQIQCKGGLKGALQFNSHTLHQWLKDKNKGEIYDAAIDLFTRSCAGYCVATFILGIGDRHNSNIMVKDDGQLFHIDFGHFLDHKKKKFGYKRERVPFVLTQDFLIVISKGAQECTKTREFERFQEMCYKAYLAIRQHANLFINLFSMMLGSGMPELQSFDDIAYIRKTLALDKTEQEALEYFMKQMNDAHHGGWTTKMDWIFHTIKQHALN
In short: as §1

[5] = target: T5, scanMAX Kinase assay panel (Homo sapiens, UniProt Q8N752); conditions: CSNK1A1L; 1 uM; read-out: Percent Control (%)
T5 construct: purchased DiscoverX
T5 sequence (Q8N752 1-337): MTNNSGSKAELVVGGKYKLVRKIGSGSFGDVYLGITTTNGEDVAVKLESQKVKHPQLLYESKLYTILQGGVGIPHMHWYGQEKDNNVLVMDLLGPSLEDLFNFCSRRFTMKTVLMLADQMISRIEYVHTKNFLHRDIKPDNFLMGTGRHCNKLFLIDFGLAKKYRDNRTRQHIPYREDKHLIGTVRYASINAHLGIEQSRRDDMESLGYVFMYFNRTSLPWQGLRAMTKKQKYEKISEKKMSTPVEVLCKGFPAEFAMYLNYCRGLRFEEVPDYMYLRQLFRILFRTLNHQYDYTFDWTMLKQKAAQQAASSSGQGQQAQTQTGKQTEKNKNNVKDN
In short: as §1

[6] = target: T6, scanMAX Kinase assay panel (Homo sapiens, UniProt P00533, G719S); conditions: EGFR (G719S); 1 uM; read-out: Percent Control (%)
T6 construct: purchased DiscoverX
T6 sequence (P00533 25-1210 G719S): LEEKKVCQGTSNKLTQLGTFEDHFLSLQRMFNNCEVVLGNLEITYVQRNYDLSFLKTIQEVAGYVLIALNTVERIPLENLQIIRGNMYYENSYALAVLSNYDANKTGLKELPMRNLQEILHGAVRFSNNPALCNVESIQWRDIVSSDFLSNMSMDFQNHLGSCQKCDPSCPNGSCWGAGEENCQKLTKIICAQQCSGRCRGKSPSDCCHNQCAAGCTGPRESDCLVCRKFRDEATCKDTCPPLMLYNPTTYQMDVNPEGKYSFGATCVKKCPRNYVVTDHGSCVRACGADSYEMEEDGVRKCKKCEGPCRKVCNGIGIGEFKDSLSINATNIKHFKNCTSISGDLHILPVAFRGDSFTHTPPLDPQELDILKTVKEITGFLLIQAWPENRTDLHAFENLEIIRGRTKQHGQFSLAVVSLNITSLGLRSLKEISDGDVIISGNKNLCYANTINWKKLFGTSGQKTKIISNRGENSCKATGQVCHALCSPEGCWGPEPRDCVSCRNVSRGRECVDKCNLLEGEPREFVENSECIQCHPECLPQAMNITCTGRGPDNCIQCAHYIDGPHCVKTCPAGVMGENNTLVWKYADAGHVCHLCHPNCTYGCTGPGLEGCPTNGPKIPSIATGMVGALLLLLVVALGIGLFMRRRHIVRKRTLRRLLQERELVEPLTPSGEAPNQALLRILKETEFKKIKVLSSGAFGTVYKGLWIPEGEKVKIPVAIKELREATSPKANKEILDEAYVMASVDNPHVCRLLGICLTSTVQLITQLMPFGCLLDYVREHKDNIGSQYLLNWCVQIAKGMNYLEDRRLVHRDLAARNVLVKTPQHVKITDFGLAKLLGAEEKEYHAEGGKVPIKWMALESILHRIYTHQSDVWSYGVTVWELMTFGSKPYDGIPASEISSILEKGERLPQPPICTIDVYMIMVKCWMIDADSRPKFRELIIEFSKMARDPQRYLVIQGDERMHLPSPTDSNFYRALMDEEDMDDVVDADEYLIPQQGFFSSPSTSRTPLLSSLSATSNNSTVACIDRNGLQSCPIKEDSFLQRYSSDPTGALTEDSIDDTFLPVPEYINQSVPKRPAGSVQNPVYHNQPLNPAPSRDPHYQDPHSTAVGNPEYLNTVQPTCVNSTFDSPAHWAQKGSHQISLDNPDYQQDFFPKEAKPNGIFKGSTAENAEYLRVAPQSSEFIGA
In short: as §1

[7] = target: T7, scanMAX Kinase assay panel (Homo sapiens, UniProt P07333); conditions: 1 uM, read-out: Percent Control (%)
T7 construct: purchased DiscoverX
T7 sequence (P07333 20-972): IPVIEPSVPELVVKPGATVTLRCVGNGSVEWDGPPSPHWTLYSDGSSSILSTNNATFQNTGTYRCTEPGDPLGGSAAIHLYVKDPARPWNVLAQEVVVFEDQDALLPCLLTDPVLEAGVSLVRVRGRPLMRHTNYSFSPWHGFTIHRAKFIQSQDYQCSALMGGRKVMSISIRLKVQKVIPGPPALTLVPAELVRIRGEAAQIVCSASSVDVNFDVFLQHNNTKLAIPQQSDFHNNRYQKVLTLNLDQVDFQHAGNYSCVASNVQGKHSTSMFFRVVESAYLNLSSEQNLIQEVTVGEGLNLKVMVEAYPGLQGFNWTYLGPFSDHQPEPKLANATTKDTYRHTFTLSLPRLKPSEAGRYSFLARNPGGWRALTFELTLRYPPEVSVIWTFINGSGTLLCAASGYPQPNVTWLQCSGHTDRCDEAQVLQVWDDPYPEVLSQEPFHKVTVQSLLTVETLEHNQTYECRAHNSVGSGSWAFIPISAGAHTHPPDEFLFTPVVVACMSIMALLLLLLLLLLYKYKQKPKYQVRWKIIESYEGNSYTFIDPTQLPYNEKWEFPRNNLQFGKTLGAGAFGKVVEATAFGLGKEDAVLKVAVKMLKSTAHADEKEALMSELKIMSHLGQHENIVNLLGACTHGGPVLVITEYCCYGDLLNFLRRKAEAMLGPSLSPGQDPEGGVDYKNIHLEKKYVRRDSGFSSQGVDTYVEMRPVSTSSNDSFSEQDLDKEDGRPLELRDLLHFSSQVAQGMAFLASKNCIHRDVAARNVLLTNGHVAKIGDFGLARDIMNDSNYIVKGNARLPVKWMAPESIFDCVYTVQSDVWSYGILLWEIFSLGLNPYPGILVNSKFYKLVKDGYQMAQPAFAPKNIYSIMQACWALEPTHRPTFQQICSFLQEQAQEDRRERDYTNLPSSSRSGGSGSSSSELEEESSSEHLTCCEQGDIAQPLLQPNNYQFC
In short: as §1

T1 sequence (O96013 whole entry): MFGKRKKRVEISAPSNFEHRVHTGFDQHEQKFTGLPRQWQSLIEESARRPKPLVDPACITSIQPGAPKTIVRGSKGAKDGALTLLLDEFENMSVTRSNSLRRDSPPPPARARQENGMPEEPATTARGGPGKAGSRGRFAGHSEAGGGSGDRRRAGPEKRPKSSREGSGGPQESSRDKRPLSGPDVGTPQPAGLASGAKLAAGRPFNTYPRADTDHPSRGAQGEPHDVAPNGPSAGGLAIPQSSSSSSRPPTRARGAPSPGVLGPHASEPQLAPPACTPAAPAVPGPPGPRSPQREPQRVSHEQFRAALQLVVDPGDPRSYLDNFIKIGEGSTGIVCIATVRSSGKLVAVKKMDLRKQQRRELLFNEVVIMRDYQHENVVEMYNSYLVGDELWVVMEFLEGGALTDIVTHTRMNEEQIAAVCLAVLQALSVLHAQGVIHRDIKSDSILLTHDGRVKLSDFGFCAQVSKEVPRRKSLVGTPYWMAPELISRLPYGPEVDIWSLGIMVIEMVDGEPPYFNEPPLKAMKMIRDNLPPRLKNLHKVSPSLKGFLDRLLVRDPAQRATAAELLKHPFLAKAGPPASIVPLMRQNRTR

SMILES | remaining binding at 1 µM [1] [%] | remaining binding at 1 µM [2] [%] | remaining binding at 1 µM [3] [%] | remaining binding at 1 µM [4] [%] | remaining binding at 1 µM [5] [%] | remaining binding at 1 µM [6] [%] | remaining binding at 1 µM ([7]; CSF1R-autoinhibited) [%] | remaining binding at 1 µM ([7]; CSF1R) [%]
Cc1ccc(NC(=O)C2(C(=O)Nc3ccc(F)cc3)CC2)cc1C#Cc1cnc2c(Nc3cnn(C(C)C)c3)cccn12 [Example 78] | 100 | 100 | 98 | 89 | 100 | 100 | 91 | 2
Cc1cn(-c2cc(NC(=O)c3ccc(C)c(C#Cc4cnc5c(Nc6cnn(C)c6)cccn45)c3)cc(C(F)(F)F)c2)cn1 [Example 12, 4-methyl-N-(3-(4-methyl-1H-imidazol-1-yl)-5-(trifluoromethyl)phenyl)-3-((8-((1-methyl-1H-pyrazol-4-yl)amino)imidazo[1,2-a]pyridin-3-yl)ethynyl)benzamide] | 98 | 87 | 87 | 100 | 70 | 20 | 100 | 0
Cc1ccc(C(=O)Nc2ccc(CN3CCN(C)CC3)c(C(F)(F)F)c2)cc1C#Cc1cnc2c(Nc3cnn(C)c3)cccn12 [Example 1, 4-methyl-3-((8-((1-methyl-1H-pyrazol-4-yl)amino)imidazo[1,2-a]pyridin-3-yl)ethynyl)-N-(4-((4-methylpiperazin-1-yl)methyl)-3-(trifluoromethyl)phenyl)benzamide] | 85 | 7 | 34 | 83 | 93 | 1 | 74 | 0

From patent US10870647B2, “Imidazopyridine derivative, method for preparing same, and pharmaceutical composition containing same as active ingredient for preventing or treating cancer” (DAEGU-GYEONGBUK MEDICAL INNOVATION FOUNDATION, priority 2016, dated 2020)
